Like-named read-outs stand apart in the source and are kept apart here.
Legend:
[1] = tested on: Human T-cell Inflammation; test: T-cell inflammation inhibition assay (Anti-CD3 stimulation) in PBMC; settings: 100, 50, and 25 µM, 24 hours, PBMC from three human donors
[2] = tested on: IP10, TNF-alpha and MCP-1; test: Cytokine/chemokine expression in LPS induced PBMC
[3] = tested on: Human T-cell Inflammation; test: T-cell inflammation inhibition assay (ConA and PHA stimulation) in PBMC; settings: 100, 50, and 25 µM, 24 hours, PBMC from three human donors
SARS-CoV-2 [4] = test: SARS-CoV-2 Syrian hamster infection model; settings: for reduction of progeny virus in throat swabs (TCID50 assay): 100mg/kg loading dose then 75mg/kg daily, oral; for reduction of progeny virus in throat swabs (TCID50 assay) / reduction of viral load in throat swabs (PCR): day 3 p.i.
MxA and IL8 mRNA = MxA and IL8 mRNA expression in poly (I:C) transfected A549 cells; assay type: cell-based, Homo sapiens; settings: 100 ng/ml poly (I:C), 24 hours
SARS-CoV-2 strain FI = assay type: cell-based, Severe acute respiratory syndrome coronavirus; settings: Vero cells, MOI 0.01; 50 µM ATR-002; 24h, 36h and 48h
ACE2 = ACE2 expression in Calu-3 cells (immunofluorescence microscopy and WES); assay type: cell-based, Homo sapiens; settings: 100µM ATR-002, 24h
Procedure: Then the wells were washed once with PBS and fixed with 300µL/well 4% PFA in PBS for 10 minutes at room temperature. After another wash step with PBS, the cells were blocked for 1 hour with 1% BSA in PBS at room temperature before incubation with 200µL/well of the primary antibody (Goat-Anti-ACE2 antibody (R&D systems; Cat.: AF933; Lot.:HOK0320061) (1:20) in 1% BSA in PBS for 1h at room temperature on a shaker (100 rpm). Afterwards, the cells were washed three times with PBS before incubation with 200µL/well of the secondary antibody Donkey anti-Goat IgG (H+L) Highly Cross-Absorbed Secondary Antibody, Alexa Fluor Plus 647 (Invitrogen; Ref.: A32849TR; Lot.:VE306231) (1:200) in 1% BSA in PBS for 45 minutes at room temperature on a shaker. After another three wash steps with PBS, 200µL Rhodamine Phalloidin (Invitrogen; Ref.: R415; Lot.: 2157163) (1:40 in 1% BSA in PBS) were added to each well and incubated for 30 minutes at room temperature on a shaker. After two final wash steps with PBS, the cover slips were removed from the wells and mounted on microscope slides with Roti®-Mount FluorCare DAPI (Roth; Art.-Nr.: HP20.1; Lot.: 080293945). The slides were let dry at 4°C in the dark and then analysed using a confocal laser scanning microscope (LSM800, Zeiss).

[5] = tested on: SARS-CoV-2 viral gene RdRP; assay type: cell-based, Severe acute respiratory syndrome coronavirus; settings: Vero cells, MOI 0.01; 50 µM ATR-002; 24, 36 and 48 hpi
SARS-CoV-2 (FI) [6] = assay type: cell-based, Severe acute respiratory syndrome coronavirus; settings: primary human ALI cultures, MOI 1.0; 50 µM and 100 µM; three cultures
Calu-3 cells = test: Cytotoxicity evaluation in Calu-3 cells; assay type: cell-based, Homo sapiens; settings: 72 h treatment
Procedure: In a next step, Calu-3 cells were incubated with increasing amounts of ATR-002 over 24, 48 or 72 hours. Specifically, Calu-3 cells were infected with SARS-CoV-2 (FI) using a MOI of 0.01. 1 h.p.i. cells were treated with ATR-002. Mock, SARS-CoV-2 and DMSO served as controls. […] Untreated (SARS-CoV-2) and DMSO (0.1 %) treated cells served as negative controls. Data represents means ± SD of three independent experiments, each performed in triplicates. Data passed a one-way ANOVA followed by Dunnett's multiple comparison test (^∗∗ p≤0.0021; ^∗∗∗ p≤0,0002; ^∗∗∗∗ p≤0.0001) for each time point separately. DMSO was used as reference. […] Data in combination with (C) was used to calculate the CC50 value and the selectivity index (SI). […] Data represent means ± SD of three independent experiments.

pERK1/2 = test: Wes analysis of ERK phosphorylation in SARS-CoV-2 infected Caco-2 cells; assay type: cell-based, Homo sapiens; settings: CaCo-2 cells infected SARS-CoV-2 (MOI 0.1); 50 and 100 µM ATR-002; 24h
Procedure: For the Virus yield reduction assay a 24-well plate (Greiner Bio-One, Cat. 662-160) with 95% confluent Caco-2 cells was prepared. The wells were washed once with Caco-2 infection medium DMEM (Gibco, Cat. 41965-039) supplemented with 5% FCS (Capricorn, Cat. FBS-12A), 1% Penicillin/Streptomycin, (Sigma Aldrich, Cat. P4333) and 1% Non-essential amino acids (NEAA) (Merck, Cat. K 0293). Cells were infected with SARS-CoV-2 (MOI 0.1) for 1h in 200µL Caco-2 infection medium per well. Afterwards the Virus inoculum was removed completely and cells were treated with 1mL per well with different concentrations of ATR-002 (100µM, 50µM, 25µM, 12.5µM, 6.25µM, 3.125µM, 1.56µM, 0.78µM, 0.39µM, 0.195µM, 0.098µM, 0µM) in Caco-2 infection medium with 1% DMSO for 24h at 37°C, 5% CO2. […]
Wes™ capillary electrophoresis by ProteinSimple® was used to identify and quantify pERK1/2, ERK1/2 and SARS-CoV-2 Nucleoprotein. Cell lysates were diluted with 0.1X Sample Buffer (ProteinSimple, Abingdon, Oxford, UK) to approximately 50ng total protein per lane and analyzed using specific antibodies. […] The anti-rabbit secondary antibody (ProteinSimple, Cat. DM-001) and anti-mouse secondary antibody (ProteinSimple, Cat. DM-002) and all other reagents for WES analysis were also purchased from ProteinSimple and were ready to use.

memory T cells = test: 12-day T cell clonal expansion with IFN-γ FluoroSpot (memory T cell reactivation)
[7] = human, in vivo
SARS-CoV-2 [8] = assay type: cell-based, Severe acute respiratory syndrome coronavirus; settings: Caco-2, Vero E6 and Calu-3 cells; 100 µM, 75 µM, 50 µM; 24 hours
[9] = tested on: IL-6, IL-8, MCP-1, IP-10 and CCL5 mRNA; test: Pro-inflammatory cytokine mRNA expression in SARS-CoV-2 infected Calu-3 cells (real-time PCR); assay type: cell-based, Homo sapiens; settings: SARS-CoV-2 (FI) MOI 0.01, increasing amounts of ATR-002
[10] = tested on: cytokine & chemokine gene expression; test: Acute lung injury (ALI) mouse model, LPS induced cytokine and chemokine gene expression; assay type: in vivo; settings: 5mg/kg LPS i.p.; 25 mg/kg ATR-002 i.p. one hour post stimulation; 6h post treatment
SARS-CoV-2 (FI) [11] = assay type: cell-based, Severe acute respiratory syndrome coronavirus
SARS-CoV-2 [12] = assay type: cell-based, Severe acute respiratory syndrome coronavirus; settings: CaCo-2 cells, MOI 0.1; 50 and 100 µM ATR-002; 24h
VSV ΔG/GFP-Luc+SΔ21 = assay type: cell-based
MCP-1 = MCP-1 expression in SARS-CoV-2 infected CaCo2 cells; assay type: cell-based, Homo sapiens; settings: high amount of ATR-002 necessary
[13] = LPS induced PMBC cells, 10µg/ml ATR-002

O=C(O)c1ccc(F)c(F)c1Nc1ccc(I)cc1Cl [ATR-002, 2-(2-chloro-4-iodophenylamino)-N-3,4-difluoro benzoic acid]
inhibition of cytokine/chemokine stimulation [1]: significant, dose dependent inhibition | inhibition at 10 µg/mL ([2]; Homo sapiens, PBMC, read-out: inhibition of LPS induced MCP-1): > 90% | IP10 expression [2, 13]: reduced | MCP-1 expression [2, 13]: reduced | TNF-alpha expression [2, 13]: reduced | inhibition of cytokine/chemokine stimulation ([3]; ConA stimulation): significant, dose dependent inhibition | inhibition of cytokine/chemokine stimulation ([3]; PHA stimulation): significant, dose dependent inhibition | tolerability, weight loss, adverse effects (SARS-CoV-2 [4]; both treatment groups compared to vehicle group): well tolerated without significant weight loss | alveolar haemorrhage, oedema and type II pneumocyte hyperplasia (SARS-CoV-2 [4]; histopathology 4 days post infection, treated at days 1, 2, and 3 post infection): no haemorrhage, oedema and type II pneumocyte hyperplasia | score in alveolitis (SARS-CoV-2 [4]; histopathology 4 days post infection, treated at days 1, 2, and 3 post infection, vehicle score 3): 1 | reduction of progeny virus in throat swabs (TCID50 assay) (SARS-CoV-2 [4]; treated 4 hours p.i.): 1.1 log10 | reduction of viral load in throat swabs (PCR) (SARS-CoV-2 [4]; treated 4 hours p.i.): 1.1 log10 | reduction of progeny virus in throat swabs (TCID50 assay) (SARS-CoV-2 [4]; treated 24 hours p.i.): 1.3 log10 | reduction of viral load in throat swabs (PCR) (SARS-CoV-2 [4]; treated 24 hours p.i.): 1.2 log10 | percentage of affected lung area (SARS-CoV-2 [4]; treatment 4 hours p.i., day 4 p.i., P=0.0282): significantly reduced affected lung tissue | percentage of affected lung area (SARS-CoV-2 [4]; treatment 24 hours p.i., day 4 p.i., P=0.0314): significantly reduced affected lung tissue | reduction in infectious virus titers (TCID50/g tissue) in the nasal turbinates (SARS-CoV-2 [4]; treatment start 4 hours p.i., day 4 p.i.): 1.3 log10 | reduction of viral load in the nasal turbinates (PCR) (SARS-CoV-2 [4]; treatment started 4 hours p.i., day 4 p.i.): 1.1 log10 | infectious virus titers in the nasal turbinates (SARS-CoV-2 [4]; treatment started 24 hours p.i., day 4 p.i.): not the treatment started 24 hours p.i., significantly reduced infectious virus titers | MxA mRNA expression (anti-viral interferon system) (MxA and IL8 mRNA): did not affect the stimulation of the anti-viral interferon system | expression of pro-inflammatory IL8 (MxA and IL8 mRNA; even with low concentrations): strong reduction | viral load (virus titer by plaque assay) (SARS-CoV-2 strain FI): lower viral load than control cells | ACE2 expression (ACE2): reduction of ACE2 | SARS-CoV-2 viral gene RdRP genome copy number [5]: confirmed | production of progeny viral particles (SARS-CoV-2 (FI) [6]): completely blocked the production of progeny viral particles | Cytotoxicity (Calu-3 cells): non-toxic concentration range | ERK-phosphorylation (pERK1/2): inhibition | Spot counts, representing the number of activated T cells (memory T cells; CEF peptide stimulated PBMCs, three donors, 5 or 10 pg/mL on three different time points, 12 days): not reduced | cell proliferation/density by microscope (memory T cells; in vitro culture of PBMC): no visible effect on cell proliferation/density | blood levels (pharmacokinetics exposure) [7]: confirm the maintenance of clinically relevant blood levels | safety and tolerability [7]: safe and well tolerable | safety of each dose cohort (Safety Review Committee) [7]: considered to be safe | serious adverse events [7]: no serious adverse events | virus titer via RT-qPCR (N gene) (SARS-CoV-2 [8]): the effect seen on all cell types was comparable | expression of pro-inflammatory cytokines (IL-6, IL-8, MCP-1, IP-10 and CCL5 mRNA) [9]: reduce the expression of pro-inflammatory cytokines | IL-1beta gene expression in lung [10]: decrease | IL-8 gene expression in lung [10]: decrease | IP-10 gene expression in lung [10]: decrease | MCP-1 gene expression in lung [10]: decrease | MIP-1beta gene expression in lung [10]: decrease | TNF-alpha gene expression in lung [10]: decrease | cell damage of infected cells (light microscopy) (SARS-CoV-2 (FI) [11]; Calu-3 cells infected with SARS-CoV-2, Figure 6 D): did not show the characteristic cell damage | production of progeny viral particles (SARS-CoV-2 (FI) [11]; Calu-3 cells, MOI 0.01, ATR-002 10 - 150 µM, 24, 48 or 72 hours): concentration dependent decrease in the production of progeny viral particles | SARS-CoV-2 virus titer (SARS-CoV-2 [12]): inhibition | nucleocapsid protein (SARS-CoV-2 [12]): inhibition | internalization of the VSV pseudotype virus (GFP-positive cells) (VSV ΔG/GFP-Luc+SΔ21): reduction in the internalization of the VSV pseudotype virus | MCP-1 expression (MCP-1): able to reduce MCP-1 expression

O=C(NOCC1CC1)c1ccc(F)c(F)c1Nc1ccc(I)cc1Cl [CI-1040, reference compound]
internalization of the VSV pseudotype virus (GFP-positive cells) (VSV ΔG/GFP-Luc+SΔ21): reduction in the internalization of the VSV pseudotype virus
